Measured values from patent publication US8008326B2, “4-benzyledene-piperidin derivatives” (Richter Gedeon Vegyeszeti Gyar Rt., priority 2004, dated 2011).
Like-named read-outs stand apart in the source and are kept apart here. Marks after values point to notes of the source that are not given here.

Tests used:
[1] = target: T1, NR2B containing NMDA receptors (rat cortical cells) (Rattus norvegicus, UniProt P35439+Q00960); assay: NMDA antagonist potency by intracellular calcium measurement with plate reader fluorimeter in rat cortical cell culture; assay type: cell-based; conditions: fluorimetric method
T1 construct: The cells at this in vitro age are believed to express predominantly NR2B containing NMDA receptors; endogenous in cells; host or cells: primary neocortical cell culture from 17 day old rat embryos, 3-7 days in vitro
T1 sequence (Q00960 27-1482, other chains not shown): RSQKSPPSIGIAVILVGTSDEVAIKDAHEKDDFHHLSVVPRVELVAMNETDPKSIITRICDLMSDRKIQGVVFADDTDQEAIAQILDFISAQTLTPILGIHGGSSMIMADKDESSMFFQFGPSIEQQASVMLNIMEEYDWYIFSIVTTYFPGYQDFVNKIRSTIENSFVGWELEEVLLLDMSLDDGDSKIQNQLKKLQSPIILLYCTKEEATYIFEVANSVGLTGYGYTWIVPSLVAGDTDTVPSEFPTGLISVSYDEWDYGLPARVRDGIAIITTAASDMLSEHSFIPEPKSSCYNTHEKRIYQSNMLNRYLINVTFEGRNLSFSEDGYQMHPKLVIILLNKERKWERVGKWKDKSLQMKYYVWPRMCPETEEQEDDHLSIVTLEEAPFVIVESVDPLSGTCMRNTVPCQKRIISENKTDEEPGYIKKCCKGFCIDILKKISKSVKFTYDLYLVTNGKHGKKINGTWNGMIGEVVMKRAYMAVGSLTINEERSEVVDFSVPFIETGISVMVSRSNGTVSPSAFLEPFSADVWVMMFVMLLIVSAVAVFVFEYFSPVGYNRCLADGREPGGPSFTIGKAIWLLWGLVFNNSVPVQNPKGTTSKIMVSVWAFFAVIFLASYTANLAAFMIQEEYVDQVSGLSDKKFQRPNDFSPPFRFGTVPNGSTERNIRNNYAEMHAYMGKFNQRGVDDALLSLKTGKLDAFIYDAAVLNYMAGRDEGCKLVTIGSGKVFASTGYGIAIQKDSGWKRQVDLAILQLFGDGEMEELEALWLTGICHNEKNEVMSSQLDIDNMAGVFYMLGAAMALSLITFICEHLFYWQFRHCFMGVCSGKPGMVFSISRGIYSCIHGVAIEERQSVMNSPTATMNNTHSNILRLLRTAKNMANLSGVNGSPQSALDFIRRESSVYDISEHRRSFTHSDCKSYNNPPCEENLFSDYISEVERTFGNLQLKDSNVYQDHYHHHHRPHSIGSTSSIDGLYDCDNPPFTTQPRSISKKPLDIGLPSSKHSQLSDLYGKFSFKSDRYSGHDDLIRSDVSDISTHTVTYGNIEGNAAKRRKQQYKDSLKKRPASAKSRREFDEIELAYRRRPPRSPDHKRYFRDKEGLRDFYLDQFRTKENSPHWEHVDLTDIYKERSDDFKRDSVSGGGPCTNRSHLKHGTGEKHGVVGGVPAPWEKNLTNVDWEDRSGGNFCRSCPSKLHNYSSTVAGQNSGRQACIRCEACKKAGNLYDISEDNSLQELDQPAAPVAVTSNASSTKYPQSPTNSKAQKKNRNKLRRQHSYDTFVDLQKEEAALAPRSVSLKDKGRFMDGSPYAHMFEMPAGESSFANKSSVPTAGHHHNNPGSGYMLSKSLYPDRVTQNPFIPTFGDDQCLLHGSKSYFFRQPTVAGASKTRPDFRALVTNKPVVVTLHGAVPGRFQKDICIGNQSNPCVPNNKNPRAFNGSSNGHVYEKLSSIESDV
Method: Assessment of NMDA Antagonist Potency In Vitro by Measurement of Intracellular Calcium Concentration with a Plate Reader Fluorimeter in Rat Cortical Cell Culture
The cultures were used for the intracellular calcium measurements after 3-7 days in vitro. […] Before the measurement the cells were loaded with a fluorescent Ca^2+-sensitive dye, Fluo-4/AM (2 μM). To stop loading the cells were washed twice with the solution used for the measurement (140 mM NaCl, 5 mM KCl, 2 mM CaCl2, 5 mM HEPES, 5 mM HEPES-Na, 20 mM glucose, 10 μM glycine, pH=7.4). After washing, the test compounds were added to the cells in the above solution (90 μl well). Intracellular calcium measurements were carried out with a plate reader fluorimeter: elevation of Fluo-4-fluorescence and so, intracellular calcium concentration was induced by application of 40 μM NMDA. Inhibitory potency of the test compounds was assessed by measuring the reduction in the calcium elevation in the presence of different concentrations of the compounds.
(§1) Dose-response curves and IC50-values were calculated using data derived from at least three independent experiments. Inhibitory potency of a compound at a single concentration point was expressed as percent inhibition of the NMDA response. Sigmoidal concentration-inhibition curves were fit to the data and IC50 values were determined as the concentration that produces half of the maximal inhibition caused by the compound.

[2] = target: T2, recombinant NMDA receptors NR1/NR2A (HEK293 cells) (Homo sapiens, UniProt Q12879); assay: Inhibition of NMDA evoked cytosolic calcium elevation in HEK293 cells transfected with NR1/NR2A; assay type: cell-based; conditions: for inhibition at 15 µM: HEK293
T2 construct: expressed in transfected cells
T2 sequence (Q12879 23-1464, other chains not shown): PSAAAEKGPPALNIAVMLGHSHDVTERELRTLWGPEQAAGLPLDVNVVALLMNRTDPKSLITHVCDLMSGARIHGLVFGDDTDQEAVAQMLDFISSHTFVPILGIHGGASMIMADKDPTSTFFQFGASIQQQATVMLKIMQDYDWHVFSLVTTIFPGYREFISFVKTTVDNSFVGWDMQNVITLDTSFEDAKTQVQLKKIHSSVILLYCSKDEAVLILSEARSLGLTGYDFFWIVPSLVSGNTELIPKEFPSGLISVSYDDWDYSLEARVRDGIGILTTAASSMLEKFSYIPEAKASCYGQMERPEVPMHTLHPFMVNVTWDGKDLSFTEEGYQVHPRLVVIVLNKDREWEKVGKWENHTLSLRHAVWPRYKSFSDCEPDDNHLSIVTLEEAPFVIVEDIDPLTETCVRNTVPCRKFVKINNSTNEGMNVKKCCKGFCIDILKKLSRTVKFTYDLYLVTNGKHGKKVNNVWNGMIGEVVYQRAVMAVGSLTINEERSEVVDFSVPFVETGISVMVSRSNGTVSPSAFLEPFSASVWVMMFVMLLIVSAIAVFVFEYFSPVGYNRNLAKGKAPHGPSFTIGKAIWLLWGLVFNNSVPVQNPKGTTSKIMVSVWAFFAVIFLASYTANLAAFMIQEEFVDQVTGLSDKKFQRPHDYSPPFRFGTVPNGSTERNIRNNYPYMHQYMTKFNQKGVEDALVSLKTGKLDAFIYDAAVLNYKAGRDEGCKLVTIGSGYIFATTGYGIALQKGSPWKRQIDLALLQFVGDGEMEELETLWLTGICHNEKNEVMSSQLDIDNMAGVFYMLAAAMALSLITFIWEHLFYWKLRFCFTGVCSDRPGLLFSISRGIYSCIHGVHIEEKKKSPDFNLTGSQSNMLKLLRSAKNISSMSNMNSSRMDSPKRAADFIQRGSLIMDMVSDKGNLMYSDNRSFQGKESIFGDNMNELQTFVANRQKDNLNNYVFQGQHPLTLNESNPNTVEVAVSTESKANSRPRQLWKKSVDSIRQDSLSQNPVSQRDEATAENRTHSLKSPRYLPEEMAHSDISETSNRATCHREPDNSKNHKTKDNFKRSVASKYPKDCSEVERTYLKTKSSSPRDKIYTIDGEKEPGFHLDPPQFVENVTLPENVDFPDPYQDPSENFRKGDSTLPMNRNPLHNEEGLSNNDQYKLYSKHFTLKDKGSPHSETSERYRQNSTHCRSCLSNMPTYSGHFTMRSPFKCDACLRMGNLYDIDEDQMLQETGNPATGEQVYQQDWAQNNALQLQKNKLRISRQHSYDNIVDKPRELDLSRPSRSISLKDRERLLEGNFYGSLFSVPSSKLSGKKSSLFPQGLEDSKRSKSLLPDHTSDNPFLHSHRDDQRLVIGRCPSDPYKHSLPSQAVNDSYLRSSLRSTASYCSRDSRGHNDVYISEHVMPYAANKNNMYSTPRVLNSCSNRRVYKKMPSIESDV
Method: Expression of Recombinant NMDA Receptors
(1997); Neurochemistry International, 43, 19-29. (2003)]. […] Compounds were tested for their inhibitory action on NMDA evoked cytosolic calcium elevations in fluorescent calcium measurements. Studies were performed 48-72 h after addition of the inducing agent. Ketamine (500 μM) was also present during the induction in order to prevent cytotoxicity.
as §1

NMRI mice [3] = assay: Spontaneous locomotor activity (LMA) in mice; assay type: in vivo, mouse; conditions: oral
Method: Measurement of Spontaneous Locomotor Activity in Mice
Male NMRI mice weighing 20-22 g were used in the experiments.
Spontaneous locomotor activity was measured in a four-channel activity monitor. The apparatus consisted of acrylic cages (43 cm×43 cm×32 cm) equipped with 2×16 pairs of photocells along all the bottom axis of the cage. An additional array of photocells (16 pairs) was placed along two opposite sides of the cage at the height of 10 cm in order to detect rearing responses.
Experimental groups consisted of 10 animals. Thirty minutes after the oral administration of the test compound or vehicle (tween-80), the animals were individually placed in one of four cages for one hour. Horizontal and vertical movements were determined as the number of beam interruptions for one hour at 15 ruin intervals.
Mean±SE of horizontal activity data of each group was calculated then percentual changes compared to the control (vehicle-treated) group were determined. A compound was considered to cause locomotor stimulation when its effect exceeded 50% increase in beam interruptions. Consequently, doses defined as free from stimulatory action (LMAfree) produced less than 50% increase.

NMRI mice [4] = assay: Mouse formalin test, second phase, oral administration; assay type: in vivo; conditions: 15 min before formalin, licking 20 to 25 min after injection
Method: Injection of diluted formalin into the hind paw of rats or mice is known to elicit a biphasic pain-related behaviour measured as time spent by licking/biting of the injured paw. The second phase is generally defined as pain related events detected in the 15-60 min. time interval after formalin injection, with peak activity at around 30 min. It is known that NMDA receptors are involved in the second phase of response to formalin injection and this behavioural response is sensitive to blockade of NMDA receptors [Dickenson, A. and Besson J.-M. (Editors): Chapter 1, pp. 6-7: Animal models of Analgesia; and Chapter 8, pp. 180-183. Mechanism of Central Hypersensitivity: Excitatory Amino Acid Mechanisms and Their Control—In Pharmacology of Pain. Springer-Verlag (Berlin) 1997.] Therefore, we used the second phase of formalin test to characterize the efficacy of compounds in vivo. Inhibition of the second phase of response is considered to indicate an analgesic effect against chemically-induced persistent pain [Hurker, S., et al.: Formalin Test in Mice, a Useful Technique for Evaluating Mild Analgesics, Journal of Neuroscience Methods, 14 (1985) 69-76.]
Male NMRI […] (20-25 g) were used. Prior to the experiment any solid food was withdrawn for approx. 16 hours but the animals had free access to 20% glucose solution. The animals were allowed 1 hour acclimatization period in a glass cylinder (cc. 15 cm in diameter), then moved to an identical cylinder with a mirror placed behind to facilitate observation. The test substances were suspended in 5% tween-80 (10 ml per kg body weight). and administered orally by gavage 15 min before the formalin injection (20 μl of 1% formalin in 0.9& saline injected subcutaneously into the dorsal surface of the right hindpaw). The time spent by licking and biting of the injected paw was measured from 20 to 25 min. after the formalin injection.

[5] = cited from earlier work
[6] = 40 μM NMDA, read-out: Rat cortical cells (NR2B) appr. IC50

CS(=O)(=O)Nc1ccc(NC(=O)C(=O)N2CCC(=Cc3ccccc3)CC2)cc1 [Compound 10]
IC50 [1, 6]: 50 to 500 nM

Cc1ccc(C=C2CCN(C(=O)C(=O)Nc3ccc4[nH]c(=O)[nH]c4c3)CC2)cc1 [Compound 22]
inhibition at 15 µM [2]: < 30% | IC50 [1, 6]: < 50 nM

Cn1c(=O)[nH]c2ccc(NC(=O)C(=O)N3CCC(=Cc4ccccc4)CC3)cc21 [Compound 3]
IC50 [1, 6]: 50 to 500 nM

O=C(Nc1ccc2[nH]c(=O)oc2c1)C(=O)N1CCC(Cc2ccccc2)CC1 [A, 2-(4-benzyl-piperidin-1-yl)-2-oxo-N-(2-oxo-2,3-dihydro-benzoxazol-6-yl)-acetamide]
LMA % increase (NMRI mice [3]; dose 1 mg/kg): 34* % | LMA % increase (NMRI mice [3]; dose 3 mg/kg): 62% | ED50 (NMRI mice [4]): 0.85 mg/kg

O=C(Nc1ccc2[nH]c(=O)sc2c1)C(=O)N1CCC(=Cc2ccc(Cl)cc2)CC1 [Compound 15]
IC50 [1, 6]: < 50 nM

Cn1c(=O)[nH]c2ccc(NC(=O)C(=O)N3CCC(=Cc4ccc(Cl)cc4)CC3)cc21 [Compound 13]
IC50 [1, 6]: 50 to 500 nM

O=C1Cc2cc(NC(=O)C(=O)N3CCC(=Cc4ccc(F)cc4)CC3)ccc2N1 [Compound 42]
IC50 [1, 6]: 500 to 1000 nM

COc1ccc(C=C2CCN(C(=O)C(=O)Nc3ccc(NS(C)(=O)=O)cc3)CC2)cc1 [Compound 40]
inhibition at 15 µM [2]: < 30% | IC50 [1, 6]: < 50 nM

O=C(Nc1ccc2[nH]c(=O)[nH]c2c1)C(=O)N1CCC(=Cc2ccc(Cl)cc2)CC1 [Compound 12]
IC50 [1, 6]: < 50 nM

Cc1ccc(C=C2CCN(C(=O)C(=O)Nc3ccc4[nH]c(=O)n(C)c4c3)CC2)cc1 [Compound 23]
IC50 [1, 6]: 50 to 500 nM

Cc1ccc(CC2(O)CCN(CCOc3ccc(O)cc3)CC2)cc1 [Ro 63-1908]
effect on locomotor activity ([5]; J. Pharmacol. Exp. Ther. 302 (2002), Behav. Pharmacol. 14 (2003)): increase locomotor activity

Cc1ccc(C=C2CCN(C(=O)C(=O)Nc3ccc4[nH]c(=O)sc4c3)CC2)cc1 [Compound 25]
IC50 [1, 6]: < 50 nM

Cc1ccc(C=C2CCN(C(=O)C(=O)Nc3ccc4c(c3)OCC(=O)N4)CC2)cc1 [Compound 27]
IC50 [1, 6]: 50 to 500 nM

O=C1COc2cc(NC(=O)C(=O)N3CCC(=Cc4ccccc4)CC3)ccc2N1 [Compound 7]
IC50 [1, 6]: 500 to 1000 nM

O=C(Nc1ccc2[nH]c(=O)oc2c1)C(=O)N1CCC(=Cc2ccc(Cl)cc2)CC1 [Compound 11]
IC50 [1, 6]: < 50 nM

O=C(CCN1CCC(Cc2ccc(F)cc2)CC1)c1ccc2[nH]c(=O)oc2c1 [EMD 95885, reference compound]
NR1-3/NR2A % inhibition at 10 μM ([2]; 10 μM): 0.1% | IC50 ([1]; reference compounds, read-out: rat cortical cells IC50): 35 nM

O=c1[nH]c2ccc([S+]([O-])CCN3CCC(Cc4ccc(F)cc4)CC3)cc2o1 (stereo not drawn) [CI-1041, 6-{2-[4-(4-fluoro-benzyl)-piperidin-1-yl]-ethanesulfinyl}-3H-benzooxazol-2-one]
LMA % inc. (NMRI mice [3]; dose 10 mg/kg): 137% | ED50 (NMRI mice [4]): 2.4 mg/kg

C[C@@H]([C@@H](O)c1ccc(O)cc1)N1CCC(O)(c2ccccc2)CC1 [CP-101,606, (1S,2S)-1-(4-hydroxyphenyl)-2-(4-hydroxy-4-phenylpiperidine-1-yl)-1-propanol]
ED50 (NMRI mice [4]): > 20 mg/kg | effect on locomotor activity ([5]; other group, Neuropharmacology 38 (1999)): no such effect was observed | locomotor stimulating effect ([5]; up to 56 mg/kg s.c. and 100 mg/kg i.p., Soc. Neurosc. Abstr. 21 (1995)): Lack of locomotor stimulating effect

O=C1COc2cc(NC(=O)C(=O)N3CCC(=Cc4ccc(Cl)cc4)CC3)ccc2N1 [Compound 17]
IC50 [1, 6]: 500 to 1000 nM

O=C(Nc1ccc2[nH]c(=O)oc2c1)C(=O)N1CCC(=Cc2ccccc2)CC1 [Compound 1, 2-(4-Benzylidene-piperidine-1-yl)-2-oxo-N-(2-oxo-2,3-dihydro-benzooxazol-6-yl)-acetamide]
LMA % increase (NMRI mice [3]; dose 60 mg/kg): 35* % | LMA % increase (NMRI mice [3]; dose 120 mg/kg): 69% | ED50 (NMRI mice [4]): 1 mg/kg | inhibition at 15 µM [2]: < 30% | IC50 [1, 6]: < 50 nM

O=C(Nc1ccc2[nH]c(=S)oc2c1)C(=O)N1CCC(=Cc2ccc(Cl)cc2)CC1 [Compound 16]
IC50 [1, 6]: 50 to 500 nM

Cc1ccc(C=C2CCN(C(=O)C(=O)Nc3ccc4[nH]c(=S)oc4c3)CC2)cc1 [Compound 26]
IC50 [1, 6]: 50 to 500 nM

O=C(Nc1ccc2[nH]c(=O)oc2c1)C(=O)N1CCC(=Cc2ccc(F)cc2)CC1 [Compound 41]
inhibition at 15 µM [2]: < 30% | IC50 [1, 6]: < 50 nM

O=C(Nc1ccc2[nH]c(=S)oc2c1)C(=O)N1CCC(=Cc2ccccc2)CC1 [Compound 6]
IC50 [1, 6]: 50 to 500 nM

Cc1ccc(CC2CCN(C(=O)C(=O)Nc3ccc4c(c3)CC(=O)N4)CC2)cc1 [B, 2-[4-[4-methyl-benzyl)-piperidin-1-yl]-2-oxo-N-(2-oxo-2,3-dihydro-1H-indol-5-yl)-acetamide]
LMA % increase (NMRI mice [3]; dose 3.75 mg/kg): 72% | LMA % increase (NMRI mice [3]; dose 7.5 mg/kg): 141% | ED50 (NMRI mice [4]): 0.48 mg/kg

CS(=O)(=O)Nc1ccc(NC(=O)C(=O)N2CCC(=Cc3ccc(Cl)cc3)CC2)cc1 [Compound 20]
IC50 [1, 6]: 50 to 500 nM

COc1ccc(C=C2CCN(C(=O)C(=O)Nc3ccc4[nH]c(=O)[nH]c4c3)CC2)cc1 [Compound 32]
inhibition at 15 µM [2]: < 30% | IC50 [1, 6]: < 50 nM

COc1ccc(C=C2CCN(C(=O)C(=O)Nc3ccc4[nH]c(=O)n(C)c4c3)CC2)cc1 [Compound 33]
IC50 [1, 6]: 50 to 500 nM

C[C@]12N[C@H](Cc3ccccc31)c1ccccc12 [MK-801, (+)-5-Methyl-10,11-dihydro-5H-dibenzo[a,d]cyclohepten-5,10-imine]
LMA % inc. (NMRI mice [3]; dose 0.1 mg/kg): 114% | LMA % inc. (NMRI mice [3]; dose 0.3 mg/kg): 217% | ED50 (NMRI mice [4]): 0.15 mg/kg

Cc1ccc(C=C2CCN(C(=O)C(=O)Nc3ccc(NS(C)(=O)=O)cc3)CC2)cc1 [Compound 30]
IC50 [1, 6]: 50 to 500 nM

O=C(Nc1ccc2[nH]c(=O)sc2c1)C(=O)N1CCC(=Cc2ccccc2)CC1 [Compound 5]
inhibition at 15 µM [2]: < 30% | IC50 [1, 6]: < 50 nM

O=C1Cc2cc(NC(=O)C(=O)N3CCC(=Cc4ccc(Cl)cc4)CC3)ccc2N1 [Compound 14]
IC50 [1, 6]: 50 to 500 nM
